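Protocol summary: plate cells (96-well), add compound at 5 concentrations, incubate 48 h, interpolate endpoints linearly. The concentration for 50% growth inhibition is given as GI50. TGI: concentration producing complete growth inhibition.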
Legend:
Test in all cases: growth of human tumour cells (NCI), 48 h
786-0 renal = tested on: 786-0 renal
A498 renal = tested on: A498 renal
A549 NSCLC = tested on: A549 NSCLC
ACHN renal = tested on: ACHN renal
BT-549 breast = tested on: BT-549 breast
CAKI-1 renal = tested on: CAKI-1 renal
CCRF-CEM leukemia = tested on: CCRF-CEM leukemia
COLO 205 colon = tested on: COLO 205 colon
DU-145 prostate = tested on: DU-145 prostate
HCC-2998 colon = tested on: HCC-2998 colon
HCT-116 colon = tested on: HCT-116 colon
HCT-15 colon = tested on: HCT-15 colon
HL-60(TB) leukemia = tested on: HL-60(TB) leukemia
HOP-62 NSCLC = tested on: HOP-62 NSCLC
HOP-92 NSCLC = tested on: HOP-92 NSCLC
HS 578T breast = tested on: HS 578T breast
HT29 colon = tested on: HT29 colon
IGROV1 ovarian = tested on: IGROV1 ovarian
K-562 leukemia = tested on: K-562 leukemia
KM12 colon = tested on: KM12 colon
LOX IMVI melanoma = tested on: LOX IMVI melanoma
M14 melanoma = tested on: M14 melanoma
MALME-3M melanoma = tested on: MALME-3M melanoma
MCF7 breast = tested on: MCF7 breast
MDA-MB-231 breast = tested on: MDA-MB-231 breast
MDA-MB-435 = tested on: MDA-MB-435
MOLT-4 leukemia = tested on: MOLT-4 leukemia
NCI-H226 lung = tested on: NCI-H226 lung
NCI-H460 lung = tested on: NCI-H460 lung
NCI-H522 lung = tested on: NCI-H522 lung
NCI/ADR-RES ovarian = tested on: NCI/ADR-RES ovarian
OVCAR-3 ovarian = tested on: OVCAR-3 ovarian
OVCAR-4 ovarian = tested on: OVCAR-4 ovarian
OVCAR-5 ovarian = tested on: OVCAR-5 ovarian
OVCAR-8 ovarian = tested on: OVCAR-8 ovarian
PC-3 prostate = tested on: PC-3 prostate
RPMI-8226 leukemia = tested on: RPMI-8226 leukemia
RXF 393 renal = tested on: RXF 393 renal
SF-268 CNS = tested on: SF-268 CNS
SF-295 CNS = tested on: SF-295 CNS
SF-539 CNS = tested on: SF-539 CNS
SK-MEL-2 melanoma = tested on: SK-MEL-2 melanoma
SK-MEL-28 melanoma = tested on: SK-MEL-28 melanoma
SK-MEL-5 melanoma = tested on: SK-MEL-5 melanoma
SK-OV-3 ovarian = tested on: SK-OV-3 ovarian
SN12C renal = tested on: SN12C renal
SNB-19 CNS = tested on: SNB-19 CNS
SNB-75 CNS = tested on: SNB-75 CNS
SR leukemia = tested on: SR leukemia
SW-620 colon = tested on: SW-620 colon
T-47D breast = tested on: T-47D breast
U251 CNS = tested on: U251 CNS
UACC-257 melanoma = tested on: UACC-257 melanoma
UACC-62 melanoma = tested on: UACC-62 melanoma
UO-31 renal = tested on: UO-31 renal

Structure (SMILES): O=C1C(=O)c2ccccc2C(O)=C1CC=C(Br)Br
- GI50 (786-0 renal): 3.99 µM
- TGI (786-0 renal): > 100 µM
- GI50 (A498 renal): 6.21 µM
- TGI (A498 renal): 31.3 µM
- GI50 (A549 NSCLC): 2.82 µM
- TGI (A549 NSCLC): 62.2 µM
- GI50 (ACHN renal): 4.71 µM
- TGI (ACHN renal): 92.3 µM
- GI50 (BT-549 breast): 11.3 µM
- TGI (BT-549 breast): 71.9 µM
- GI50 (CAKI-1 renal): 3.38 µM
- TGI (CAKI-1 renal): > 100 µM
- GI50 (CCRF-CEM leukemia): 2.7 µM
- TGI (CCRF-CEM leukemia): > 100 µM
- GI50 (COLO 205 colon): 10.3 µM
- TGI (COLO 205 colon): 24.5 µM
- GI50 (DU-145 prostate): 9.36 µM
- TGI (DU-145 prostate): > 100 µM
- GI50 (HCC-2998 colon): 18.6 µM
- TGI (HCC-2998 colon): > 100 µM
- GI50 (HCT-116 colon): 0.887 µM
- TGI (HCT-116 colon): > 100 µM
- GI50 (HCT-15 colon): 0.368 µM
- TGI (HCT-15 colon): > 100 µM
- GI50 (HL-60(TB) leukemia): 5.37 µM
- TGI (HL-60(TB) leukemia): 30.4 µM
- GI50 (HOP-62 NSCLC): 9.01 µM
- TGI (HOP-62 NSCLC): > 100 µM
- GI50 (HOP-92 NSCLC): 12.5 µM
- TGI (HOP-92 NSCLC): 76.4 µM
- GI50 (HS 578T breast): 10.6 µM
- TGI (HS 578T breast): 56 µM
- GI50 (HT29 colon): 3.25 µM
- TGI (HT29 colon): 53.5 µM
- GI50 (IGROV1 ovarian): 3.91 µM
- TGI (IGROV1 ovarian): 93.8 µM
- GI50 (K-562 leukemia): 1.33 µM
- TGI (K-562 leukemia): > 100 µM
- GI50 (KM12 colon): 3.14 µM
- TGI (KM12 colon): 64.9 µM
- GI50 (LOX IMVI melanoma): 1.34 µM
- TGI (LOX IMVI melanoma): 27.6 µM
- GI50 (M14 melanoma): 7.38 µM
- TGI (M14 melanoma): 55.4 µM
- GI50 (MALME-3M melanoma): 18.2 µM
- TGI (MALME-3M melanoma): 60.4 µM
- GI50 (MCF7 breast): 4.29 µM
- TGI (MCF7 breast): > 100 µM
- GI50 (MDA-MB-231 breast): 8.98 µM
- TGI (MDA-MB-231 breast): 27 µM
- GI50 (MDA-MB-435): 5.26 µM
- TGI (MDA-MB-435): 98 µM
- GI50 (MOLT-4 leukemia): 2.83 µM
- TGI (MOLT-4 leukemia): > 100 µM
- GI50 (NCI-H226 lung): 11.6 µM
- TGI (NCI-H226 lung): 53.2 µM
- GI50 (NCI-H460 lung): 0.524 µM
- TGI (NCI-H460 lung): 13.3 µM
- GI50 (NCI-H522 lung): 5.28 µM
- TGI (NCI-H522 lung): 29.9 µM
- GI50 (NCI/ADR-RES ovarian): 5.33 µM
- TGI (NCI/ADR-RES ovarian): 87.3 µM
- GI50 (OVCAR-3 ovarian): 8.75 µM
- TGI (OVCAR-3 ovarian): 34.7 µM
- GI50 (OVCAR-4 ovarian): 11.7 µM
- TGI (OVCAR-4 ovarian): 75.9 µM
- GI50 (OVCAR-5 ovarian): 21.8 µM
- TGI (OVCAR-5 ovarian): > 100 µM
- GI50 (OVCAR-8 ovarian): 2.14 µM
- TGI (OVCAR-8 ovarian): 66.8 µM
- GI50 (PC-3 prostate): 3.05 µM
- TGI (PC-3 prostate): 91.5 µM
- GI50 (RPMI-8226 leukemia): 1.57 µM
- TGI (RPMI-8226 leukemia): 31.1 µM
- GI50 (RXF 393 renal): 14.3 µM
- TGI (RXF 393 renal): 80.7 µM
- GI50 (SF-268 CNS): 2.66 µM
- TGI (SF-268 CNS): > 100 µM
- GI50 (SF-295 CNS): 3.29 µM
- TGI (SF-295 CNS): > 100 µM
- GI50 (SF-539 CNS): 4.17 µM
- TGI (SF-539 CNS): 47.3 µM
- GI50 (SK-MEL-2 melanoma): 12.2 µM
- TGI (SK-MEL-2 melanoma): 30.9 µM
- GI50 (SK-MEL-28 melanoma): 12.8 µM
- TGI (SK-MEL-28 melanoma): > 100 µM
- GI50 (SK-MEL-5 melanoma): 1.28 µM
- TGI (SK-MEL-5 melanoma): 16.6 µM
- GI50 (SK-OV-3 ovarian): 10.5 µM
- TGI (SK-OV-3 ovarian): 59.8 µM
- GI50 (SN12C renal): 5.7 µM
- TGI (SN12C renal): 77.9 µM
- GI50 (SNB-19 CNS): 4.67 µM
- TGI (SNB-19 CNS): 77.8 µM
- GI50 (SNB-75 CNS): 2.58 µM
- TGI (SNB-75 CNS): 59.5 µM
- GI50 (SR leukemia): 2.57 µM
- TGI (SR leukemia): 55.9 µM
- GI50 (SW-620 colon): 3.07 µM
- TGI (SW-620 colon): > 100 µM
- GI50 (T-47D breast): 15.4 µM
- TGI (T-47D breast): 81.2 µM
- GI50 (U251 CNS): 0.976 µM
- TGI (U251 CNS): 52.7 µM
- GI50 (UACC-257 melanoma): 11 µM
- TGI (UACC-257 melanoma): 38.4 µM
- GI50 (UACC-62 melanoma): 1.57 µM
- TGI (UACC-62 melanoma): 35.9 µM
- GI50 (UO-31 renal): 6.13 µM
- TGI (UO-31 renal): 62.1 µM

Reference: PubChem BioAssay (NCI)
